The values below come from article PMC4916434, “Evaluation of the inhibition potential of plumbagin against cytochrome P450 using LC-MS/MS and cocktail approach” (Scientific Reports, 2016).

The structures appear in SMILES notation.

This series addresses T1, CYP2E1 (Homo sapiens, UniProt P05181).
T1 construct: consisting of pooled HLMs (0.5 mg/ml) or RLMs (1 mg/ml) and an NADPH-regenerating system; tissue Corning Gentest Corporation; host or cells: pooled human liver microsomes (n = 20)
As to the kind of experiment: CYP2E1 inhibition (chlorzoxazone 6-hydroxylation) in pooled human liver microsomes, cocktail LC-MS/MS. The class given is in vitro ADME. As for the experimental part: Microsomal incubation was carried out at 37 °C in a mixture of 200 μl in 0.05 M Tris/HCl buffer (pH 7.4) consisting of pooled HLMs (0.5 mg/ml) or RLMs (1 mg/ml) and an NADPH-regenerating system including MgCl2 (5 mM), G6P (10 mM), G6PDH (0.4 U/ml) and NADP (1 mM). Substrates were added into the incubation mixture and obtained the final concentrations (10 μM phenacetin for CYP1A2, 20 μM bupropion for CYP2B1/6, 20 μM tolbutamide for CYP2C9/11, 5 μM dextromethorphan for CYP2D1/6, 20 μM chlorzoxazone for CYP2E1 and 10 μM midazolam for CYP3A2/4), which were close to Km respectively. The proportion of organic solvent was not higher than 1% (v/v) in the incubation mixture. After pre-incubation for 5 min, the reaction was initiated by addition of NADP. Incubations were performed for 20 min, stopped by adding 200 μl ice-cold acetonitrile. And then 20 μl internal standard solution was added (3-acetamidophenol 2 μg/ml, chlorpropamide 2 μg/ml and mebendazole 2 μg/ml). The solution was mixed thoroughly for 3 min and centrifuged for 10 min at 16,000 × g at 4 °C. The supernatant (60 μl) was transferred to autosampler vials, and 2 μl was injected into LC-MS/MS system.
The IC50 (concentration of inhibitor to cause 50% inhibition of original enzyme activity) values were determined with the same incubation condition above. The specific concentrations of plumbagin were ranged from 0.1 μM to 50 μM. The IC50 values were calculated by plotting relative activities over the logarithm of plumbagin concentrations using GraphPad Prism 5.0 (GraphPad software Inc., CA, USA).
Cocktail probe substrates were then added and incubated for 20 min. Reactions were stopped with 200 μl ice-cold acetonitrile. The samples were treated according to the microsomal incubation method and then injected into LC-MS/MS for analysis.
Kinetic studies were performed for determining the types of inhibition on CYP by plumbagin. Pooled HLMs (0.5 mg/ml) or RLMs (1 mg/ml) with plumbagin (1 μM, 2 μM, 5 μM and 10 μM) were incubated in 0.05 M Tris/HCl buffer (pH 7.4) for 20 min at 37 °C. A series of concentrations for cocktail probe substrates were used: 2.5–20 μM phenacetin for CYP1A2; 5–40 μM bupropion for CYP2B1/6; 5–40 μM tolbutamide for CYP2C9/11; 1.25–10 μM dextromethorphan for CYP2D1/6; 5–40 μM chlorzoxazone for CYP2E1; 2.5–80 μM midazolam for CYP3A2; and 0.625–5 μM midazolam for CYP3A4. Enzyme kinetics as well as statistical analysis were performed using GraphPad Prism 5.0.
All data were presented as mean ± SD. The IC50 values were fitted by non-linear regression analysis using GraphPad Prism 5.0. The kinetic parameters were obtained by fitting velocity data to kinetic models (Michaelis-Menten) using GraphPad Prism 5.0. The Lineweaver-Burk Plot (the reciprocal of reaction velocities versus the reciprocal of substrates concentrations) was used to determine the quality of fit to a specific inhibition model. The inhibition constant (Ki) was obtained by a secondary plot using the slopes of the primary Lineweaver-Burk Plot (Km/Vmax versus inhibitor concentrations). αKi was obtained from a secondary plot using the y-intercepts of the Lineweaver-Burk plot (1/Vmax versus inhibitor concentrations). All results were analyzed in quadruplicate. One-way analysis of variance was used to estimate the significance of differences. There was statistical significance between control and test groups if p < 0.05.
On the technique in general: Microsomes from liver hold many membrane-bound enzymes, among them those of drug oxidation.

T1 sequence (P05181 whole entry): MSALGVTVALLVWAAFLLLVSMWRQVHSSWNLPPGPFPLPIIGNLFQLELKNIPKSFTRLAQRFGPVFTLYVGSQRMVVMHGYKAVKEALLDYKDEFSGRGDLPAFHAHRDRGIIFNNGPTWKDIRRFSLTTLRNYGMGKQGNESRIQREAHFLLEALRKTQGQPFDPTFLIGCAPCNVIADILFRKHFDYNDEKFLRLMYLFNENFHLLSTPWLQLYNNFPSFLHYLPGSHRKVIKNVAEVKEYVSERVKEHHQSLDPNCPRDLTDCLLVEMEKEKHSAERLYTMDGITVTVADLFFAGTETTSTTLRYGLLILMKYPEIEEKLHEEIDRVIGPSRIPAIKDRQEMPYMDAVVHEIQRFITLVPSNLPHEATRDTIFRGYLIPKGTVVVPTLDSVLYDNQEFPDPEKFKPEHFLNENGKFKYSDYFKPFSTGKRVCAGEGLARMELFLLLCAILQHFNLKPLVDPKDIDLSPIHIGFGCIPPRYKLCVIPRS

In the case of `CC1=CC(=O)c2c(O)cccc2C1=O` [plumbagin, 5-hydroxy-2-methyl-1,4-naphthoquinone], half-maximal inhibition (IC50) required 6.54 µM, the Ki stood at 0.65 µM and the Type of inhibition result is given as “mixed-type”. Under “HLMs, secondary plot of y-intercepts, chlorzoxazone 5-40 μM”, the αKi worked out at 2.64 µM. This molecule had a α (human, 20 min, pH 7.4) of 0.25.

For orientation: IC50 means the concentration that inhibits the measured activity by half. Low values mean inhibition by little substance, high ones a need for much substance. The term Ki denotes a dissociation constant, usually derived from enzyme kinetics or from competition with a known ligand. Higher therefore signals weaker binding.
